Tests used:
[1] = system: hot flashes in post-menopausal women; assay: Oral administration to patients experiencing hot flashes as symptoms of postmenopausal hormone variation; conditions: for side effects: human, in vivo, po
Excerpt: Administration of L-Norleucine to Patients Experiencing Hot Flashes as Symptoms of Postmenopausal Hormone Variation […]

[2] = Backonja et al. 1998; Rowbotham et al. 1998; cited from earlier work
palmar hyperhidrosis = conditions: L-methionine 1 g bid orally
[3] = system: hot flashes as a result of the post-partum state; conditions: L-methionine 1 g bid orally
[4] = high-dose oral L-methionine; van der Griend et al. 2002; cited from earlier work

CCCC[C@H](N)C(=O)O [L-norleucine]
reduction in hot flashes ([1]; Example 4 Patient No. 1, 6 hot flashes/day at baseline, oral L-norleucine 1.5 grams 2x/day, starting 10 days after initiating, maintained for 3.5 months): 70%
reduction in hot flashes ([1]; Example 4 Patient No. 2, 8 hot flashes/day at baseline, oral L-norleucine 1 gram 2x/day, starting 4 days after initiating, maintained for 1.5 months): 87%
side effects [1]: No side effects

NCC1(CC(=O)O)CCCCC1 [gabapentin, Gabapentin, reference compound]
patient withdrawal rate due to side effects (most often sleepiness and dizziness) [2]: approximately 13%
tolerability ([1]; Example 1 Patient No. 1, gabapentin therapy for several days): unable to tolerate the drug due to severe dizziness

CSCC[C@H](N)C(=O)O [L-methionine]
side effects (palmar hyperhidrosis): No side effects
reduction in the subjective severity of palmar hyperhidrosis (palmar hyperhidrosis; person, after 3 weeks): 50%
side effects [3]: No side effects
improvement in hot flash frequency ([3]; person, 3 severe nighttime and 2 moderate daytime hot flashes per day, after three weeks): 100%
improvement in hot flash frequency ([1]; Patient No. 1, about 10 hot flashes per day, L-methionine 1 gram tid orally, after three weeks, benefit persisted for 3 months of therapy): 90%
change in symptoms ([1]; Patient No. 1, L-methionine 500 mg three times daily for two weeks): without noticing an appreciable change
improvement in hot flash frequency ([1]; Patient No. 2, about 15 hot flashes per day, L-methionine 1 g tid orally, after three weeks, benefit persisted for 5 months of therapy): 90%
improvement in nighttime hot flash frequency ([1]; Patient No. 3, about 7 hot flashes per day, L-methionine 500 mg tid orally, after three weeks): 66%
improvement in both nighttime and daytime hot flash severity ([1]; Patient No. 3, L-methionine 500 mg tid orally, after three weeks): 50%
side effects [1]: No side effects
increase in serum homocysteine levels [4]: 10 fold
